For test [1], the target named is T1, Epidermal growth factor receptor (Homo sapiens, UniProt P00533). Briefly: Inhibition of EGFR autophosphorylation in DiFi cells by ELISA. The class given is functional, cell-based. (ELISA stands for enzyme-linked immunosorbent assay.)
Test [2] concerns the target T1, Epidermal growth factor receptor. In words: Inhibition of EGFR measured as pGAT-biotin peptide phosphorylation in presence of 2.0 uM ATP by HTRF assay. The class given is functional. Background: TR-FRET usually uses a lanthanide donor and a delayed reading to cut background.
For test [3], the target named is Vascular endothelial growth factor receptor 2 (Homo sapiens, UniProt P35968).
Vascular endothelial growth factor receptor 2, sequence (P35968 whole entry): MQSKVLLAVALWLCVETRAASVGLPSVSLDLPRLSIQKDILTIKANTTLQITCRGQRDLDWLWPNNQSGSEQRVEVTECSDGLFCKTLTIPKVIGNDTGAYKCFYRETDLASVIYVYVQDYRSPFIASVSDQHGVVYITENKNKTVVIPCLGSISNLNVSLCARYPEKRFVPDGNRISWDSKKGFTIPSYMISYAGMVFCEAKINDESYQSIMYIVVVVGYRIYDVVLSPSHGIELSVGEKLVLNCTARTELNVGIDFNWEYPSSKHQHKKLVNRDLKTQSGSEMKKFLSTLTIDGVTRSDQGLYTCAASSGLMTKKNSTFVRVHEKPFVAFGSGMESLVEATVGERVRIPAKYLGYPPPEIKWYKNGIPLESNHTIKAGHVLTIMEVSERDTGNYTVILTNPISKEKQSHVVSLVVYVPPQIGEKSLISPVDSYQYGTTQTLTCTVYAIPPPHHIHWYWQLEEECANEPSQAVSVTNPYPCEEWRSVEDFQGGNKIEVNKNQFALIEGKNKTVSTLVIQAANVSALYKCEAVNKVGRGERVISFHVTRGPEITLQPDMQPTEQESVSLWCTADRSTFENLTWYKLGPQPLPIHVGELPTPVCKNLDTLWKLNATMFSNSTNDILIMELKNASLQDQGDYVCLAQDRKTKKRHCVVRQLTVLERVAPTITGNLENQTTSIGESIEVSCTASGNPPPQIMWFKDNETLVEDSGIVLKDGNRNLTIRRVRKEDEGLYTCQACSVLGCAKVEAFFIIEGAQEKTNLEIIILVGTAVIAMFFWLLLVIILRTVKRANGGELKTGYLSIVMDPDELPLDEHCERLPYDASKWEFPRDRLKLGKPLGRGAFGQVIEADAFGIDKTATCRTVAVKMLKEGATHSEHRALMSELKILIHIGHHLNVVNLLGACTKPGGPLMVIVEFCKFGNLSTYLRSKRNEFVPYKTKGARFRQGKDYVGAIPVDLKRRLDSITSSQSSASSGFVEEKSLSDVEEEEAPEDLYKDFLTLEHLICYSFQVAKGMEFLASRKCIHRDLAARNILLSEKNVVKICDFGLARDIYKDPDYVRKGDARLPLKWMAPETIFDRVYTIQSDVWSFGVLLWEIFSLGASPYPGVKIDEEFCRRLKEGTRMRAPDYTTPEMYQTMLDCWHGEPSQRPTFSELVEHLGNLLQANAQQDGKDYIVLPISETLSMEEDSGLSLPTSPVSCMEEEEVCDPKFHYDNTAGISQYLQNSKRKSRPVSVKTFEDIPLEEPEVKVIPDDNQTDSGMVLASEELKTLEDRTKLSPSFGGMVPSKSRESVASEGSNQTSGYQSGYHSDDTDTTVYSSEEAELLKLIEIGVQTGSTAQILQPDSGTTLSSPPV
Description: Inhibition of KDR measured as pGAT-biotin peptide phosphorylation by HTRF assay

Some results are limits rather than exact numbers.

T1 sequence (P00533 whole entry): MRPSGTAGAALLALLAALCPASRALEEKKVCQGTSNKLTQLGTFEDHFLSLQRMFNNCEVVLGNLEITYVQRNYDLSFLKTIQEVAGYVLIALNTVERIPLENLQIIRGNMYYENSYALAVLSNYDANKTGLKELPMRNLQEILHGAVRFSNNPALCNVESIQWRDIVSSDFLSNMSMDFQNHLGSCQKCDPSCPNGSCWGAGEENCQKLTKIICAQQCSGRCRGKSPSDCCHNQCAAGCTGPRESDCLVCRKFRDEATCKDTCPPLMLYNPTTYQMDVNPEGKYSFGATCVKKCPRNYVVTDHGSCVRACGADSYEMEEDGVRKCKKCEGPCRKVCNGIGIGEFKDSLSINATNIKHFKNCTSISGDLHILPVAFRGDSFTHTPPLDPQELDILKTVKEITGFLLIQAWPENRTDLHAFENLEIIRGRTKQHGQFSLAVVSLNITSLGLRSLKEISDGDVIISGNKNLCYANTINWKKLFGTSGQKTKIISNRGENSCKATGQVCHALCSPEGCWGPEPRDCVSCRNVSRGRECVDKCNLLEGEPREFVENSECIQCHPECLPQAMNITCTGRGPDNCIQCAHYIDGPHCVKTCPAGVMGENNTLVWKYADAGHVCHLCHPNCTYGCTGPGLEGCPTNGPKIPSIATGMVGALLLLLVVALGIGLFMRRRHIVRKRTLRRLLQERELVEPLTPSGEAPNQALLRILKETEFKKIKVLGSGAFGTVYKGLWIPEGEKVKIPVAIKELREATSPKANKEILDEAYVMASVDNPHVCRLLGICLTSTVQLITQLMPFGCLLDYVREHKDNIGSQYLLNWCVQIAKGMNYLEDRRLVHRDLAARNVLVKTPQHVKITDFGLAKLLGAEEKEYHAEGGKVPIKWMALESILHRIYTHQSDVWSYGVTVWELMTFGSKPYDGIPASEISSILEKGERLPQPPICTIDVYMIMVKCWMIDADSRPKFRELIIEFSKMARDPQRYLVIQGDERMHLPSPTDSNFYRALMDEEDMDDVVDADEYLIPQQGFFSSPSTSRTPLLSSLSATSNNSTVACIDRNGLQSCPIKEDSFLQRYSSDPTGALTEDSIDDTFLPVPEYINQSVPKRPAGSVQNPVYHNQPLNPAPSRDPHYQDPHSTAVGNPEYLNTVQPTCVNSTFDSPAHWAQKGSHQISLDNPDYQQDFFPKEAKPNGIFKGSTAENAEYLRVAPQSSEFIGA

`COc1cccc(CNc2ncnc3c2NCc2cc(OC)c(OC)cc2N3)c1`: the concentration for half-maximal inhibition (IC50) in test [1] came to 11.7 µM; in test [2] it was 0.8 µM; in test [3], 2 µM.

`COc1cc2c(cc1OC)Sc1ncnc(N(C)c3cccc(Br)c3)c1NC2`: in test [2], the IC50 is over 100 µM.

On to `COc1cc2c(cc1OC)Oc1ncnc(Sc3cccc(Cl)c3)c1NC2`, for which the IC50 in test [1] was 2.4 µM; in test [2], 1 µM; in test [3], over 10 µM.

For `COc1cc2c(cc1OC)Oc1ncnc(Nc3ccc4ccccc4c3)c1NC2`, the IC50 in test [1] was 2.3 µM; in test [2], 0.5 µM; in test [3], over 10 µM.

Regarding `COc1cc2c(cc1OC)Oc1ncnc(Oc3cccc(Cl)c3F)c1NC2`, the IC50 in test [2] was 4.6 µM. Consider `COc1cc2c(cc1OC)Oc1ncnc(Nc3cccc(Br)c3)c1NC2`, for which the IC50 in test [1] was 0.5 µM; in test [2] it was 0.3 µM; in test [3], over 10 µM. Turning to `COc1cc2c(cc1OC)Sc1nc(C)nc(Nc3cccc(Cl)c3F)c1NC2`, the IC50 in test [2] is over 100 µM.

For `COc1cc2c(cc1OC)Sc1ncnc(Nc3ccc4ncsc4c3)c1NC2`, the IC50 in test [2] is over 100 µM. Same read-out and setting: then `COc1cc2c(cc1OC)Sc1nc(C)nc(Nc3ccc(Cl)c(C)c3)c1NC2`, with over 100 µM; and `COc1cc2c(cc1OC)Sc1ncnc(Oc3cccc(Br)c3)c1NC2`, with 21.7 µM. `COc1cc2c(cc1OC)Oc1ncnc(Nc3ccc(F)cc3)c1NC2`: the IC50 is 7.6 µM in test [1], 7.1 µM in test [2] and over 10 µM in test [3].

Consider `COc1cc2c(cc1OC)Sc1nc(C)nc(Nc3cccc(Br)c3)c1NC2`, for which the IC50 in test [2] was 30.7 µM.

`COc1cc2c(cc1OC)Sc1ncnc(Nc3cccc(Br)c3)c1NC2`: the IC50 in test [2] turned out to be 5.9 µM.

Turning to `C#Cc1cccc(Nc2ncnc3c2NCc2cc(OC)c(OC)cc2O3)c1`, the IC50 in test [1] was 0.9 µM; in test [2], 3.2 µM. For the compound `COc1cc2c(cc1OC)Oc1ncnc(Oc3cccc(Br)c3)c1N(C)C2`, the IC50 in test [1] amounted to 6.1 µM; in test [2], 1.2 µM. `COc1cc2c(cc1OC)Oc1ncnc(Oc3cccc(Br)c3)c1NC2`: the IC50 in test [1] is 1.8 µM; in test [2] it was 0.7 µM; in test [3] it was over 10 µM. Regarding `COc1cc2c(cc1OC)Sc1ncnc(Sc3cccc(Cl)c3)c1NC2`, the IC50 in test [2] came out at 2.9 µM.

Regarding `COc1cc2c(cc1OC)Oc1ncnc(Nc3ccc(Br)cc3)c1NC2`, the IC50 in test [1] was over 100 µM; in test [2] it was 8.7 µM; in test [3], over 10 µM.

Take `COc1cc2c(cc1OC)Sc1ncnc(Sc3cccc(Br)c3)c1NC2`: the IC50 in test [2] was 1.6 µM. Consider `COc1cc2c(cc1OC)Sc1nc(C)nc(Nc3ccc4c[nH]nc4c3)c1NC2`, for which the IC50 in test [2] was 24.6 µM. `COc1cc2c(cc1OC)Oc1ncnc(Sc3cccc(Br)c3)c1NC2`: the IC50 in test [1] is 1.2 µM; in test [2], 1.3 µM; in test [3], over 10 µM.

In the case of `COc1cc2c(cc1OC)Oc1ncnc(Oc3ccc(F)c(Cl)c3)c1N(C)C2`, the IC50 is 10.8 µM in test [2] and over 10 µM in test [3]. Regarding `COc1cc2c(cc1OC)Sc1nc(C)nc(Nc3ccc(F)c(Cl)c3)c1NC2`, the IC50 in test [2] was found to be 45.9 µM. `COc1cc2c(cc1OC)Sc1nc(C)nc(Nc3ccc4ncsc4c3)c1NC2`: the IC50 in test [2] came to 15.2 µM. In the case of `COc1cc2c(cc1OC)Sc1nc(C)nc(Nc3ccc4ccccc4c3)c1NC2`, in test [2], the half-inhibitory concentration (IC50) amounted to 17 µM. With `COc1cc2c(cc1OC)Oc1nc(C)nc(Nc3cccc(Cl)c3F)c1NC2`, the IC50 was over 100 µM in test [2] and over 10 µM in test [3].

As for `COc1cc2c(cc1OC)Oc1ncnc(Nc3ccc4c[nH]nc4c3)c1NC2`, the values for the IC50 in test [2] and in test [3] were 1.2 µM and over 10 µM, respectively. For the compound `COc1cc2c(cc1OC)Sc1ncnc(Oc3cccc(Cl)c3F)c1NC2`, the IC50 in test [2] came out at 19.3 µM. In test [1], `COc1cc2c(cc1OC)Oc1ncnc(Nc3ccc(F)c(Cl)c3)c1NC2` gave a half-inhibitory concentration (IC50) of 0.7 µM. Consider `COc1cc2c(cc1OC)Nc1ncnc(N[C@H](C)c3ccccc3)c1NC2`, for which the IC50 in test [1] was 0.5 µM; in test [2] it was 0.15 µM; in test [3] it was 2 µM. Regarding `COc1cc2c(cc1OC)Sc1nc(C)nc(Nc3ccc4[nH]cnc4c3)c1NC2`, the IC50 in test [2] was determined as 14.5 µM. Turning to `COc1cc2c(cc1OC)Oc1ncnc(Nc3cccc(C)c3)c1NC2`, the IC50 in test [1] is 4.4 µM; in test [2] it was 7.4 µM; in test [3] it was over 10 µM. Consider `COc1cc2c(cc1OC)Nc1ncnc(Nc3cccc(Br)c3)c1NC2`, for which the IC50 in test [2] was found to be 1.5 µM. On the same count and under the same terms, for `COc1cc2c(cc1OC)Sc1ncnc(Nc3ccc4c[nH]nc4c3)c1NC2` the value was 14.1 µM; for `COc1cc2c(cc1OC)Sc1nc(C)nc(Nc3ccc(C)c(Br)c3)c1NC2`, over 100 µM. Still for that read-out and setting: then `COc1cc2c(cc1OC)Sc1ncnc(Nc3ccc(F)c(Cl)c3)c1NC2`, with 8.2 µM.

As for `COc1cc2c(cc1OC)Oc1ncnc(Nc3cccc(Cl)c3F)c1NC2`, the IC50 in test [1] turned out to be 4.6 µM; in test [2] it was 0.3 µM. Take `COc1cc2c(cc1OC)Nc1ncnc(NCc3ccccc3)c1NC2`: the results for the half-inhibitory concentration (IC50) in test [1], in test [2] and in test [3] were 0.9 µM, 0.2 µM and 2 µM, respectively. In the case of `COc1cc2c(cc1OC)Sc1ncnc(Nc3cccc(Cl)c3F)c1NC2`, in test [2], the IC50 was 62.9 µM. `COc1cc2c(cc1OC)Oc1ncnc(Nc3ccc4ncsc4c3)c1NC2`: the results for the IC50 in test [2] and in test [3] were 5.6 µM and over 10 µM, respectively. Turning to `COc1cc2c(cc1OC)Nc1ncnc(NCc3ccc(F)c(Cl)c3)c1NC2`, the IC50 amounted to 1.6 µM in test [1], 0.3 µM in test [2] and 2 µM in test [3].

As to `COc1cc2c(cc1OC)Oc1ncnc(Nc3cc(Cl)ccc3F)c1NC2`, the IC50 in test [1] turned out to be 3.9 µM; in test [2], 1.1 µM. For `COc1cc2c(cc1OC)Sc1nc(C)nc(Nc3ccc4c(c3)CN=N4)c1NC2`, the IC50 in test [2] is 16.2 µM. Take `COc1cc2c(cc1OC)Sc1ncnc(N(C)c3cccc(Cl)c3)c1NC2`: the IC50 in test [2] was determined as 27 µM.

Broadly, the IC50 is the point on the concentration scale where inhibition reaches its midpoint.

(Values after ChEMBL document CHEMBL1149491, “Novel tricyclic azepine derivatives: Biological evaluation of pyrimido[4,5-b]-1,4-benzoxazepines, thiazepines, and diazepines as inhibitors of the epidermal growth factor receptor tyrosine kinase” (Bioorg Med Chem Lett, 2006).)
